Assay [1] concerns E. coli ATCC 25922. Description: microbe, parasite or virus in culture. Format: cell-based. As to conditions: Escherichia coli, ATCC25922, read-out: MIC E. coli 25922.
In assay [2] the test system is E. coli D22. Briefly: microbe, parasite or virus in culture. Format: cell-based. As to conditions: Escherichia coli, D22, read-out: MIC E. coli D22.
Assay [3] concerns E. coli 901C. Description: microbe, parasite or virus in culture. The assay is classed as cell-based. As to conditions: Escherichia coli, read-out: MIC E. coli 901C.
Assay [4] deals with A. baumannii ATCC 19606. Description: microbe, parasite or virus in culture. The assay is classed as cell-based. As to conditions: Acinetobacter baumannii, ATCC19606, read-out: MIC, A. baumannii ATCC 19606.
Assay [5] relates to P. aeruginosa ATCC 27853. Description: microbe, parasite or virus in culture. The assay is classed as cell-based. As to conditions: Pseudomonas aeruginosa, ATCC27853, read-out: MIC P. aeruginosa ATCC 27853.
Assay [6] relates to K. pneumoniae SI-117. Briefly: microbe, parasite or virus in culture. The assay is classed as cell-based. As to conditions: Klebsiella pneumoniae, SI117, read-out: MIC K. pneumoniae SI-117.
The target of assay [7] is T1, PBP1a from Acinetobacter baumannii (ATCC 19606) (Acinetobacter baumannii, UniProt A0ABX6CK30).
T1 sequence (A0ABX6CK30 1-851): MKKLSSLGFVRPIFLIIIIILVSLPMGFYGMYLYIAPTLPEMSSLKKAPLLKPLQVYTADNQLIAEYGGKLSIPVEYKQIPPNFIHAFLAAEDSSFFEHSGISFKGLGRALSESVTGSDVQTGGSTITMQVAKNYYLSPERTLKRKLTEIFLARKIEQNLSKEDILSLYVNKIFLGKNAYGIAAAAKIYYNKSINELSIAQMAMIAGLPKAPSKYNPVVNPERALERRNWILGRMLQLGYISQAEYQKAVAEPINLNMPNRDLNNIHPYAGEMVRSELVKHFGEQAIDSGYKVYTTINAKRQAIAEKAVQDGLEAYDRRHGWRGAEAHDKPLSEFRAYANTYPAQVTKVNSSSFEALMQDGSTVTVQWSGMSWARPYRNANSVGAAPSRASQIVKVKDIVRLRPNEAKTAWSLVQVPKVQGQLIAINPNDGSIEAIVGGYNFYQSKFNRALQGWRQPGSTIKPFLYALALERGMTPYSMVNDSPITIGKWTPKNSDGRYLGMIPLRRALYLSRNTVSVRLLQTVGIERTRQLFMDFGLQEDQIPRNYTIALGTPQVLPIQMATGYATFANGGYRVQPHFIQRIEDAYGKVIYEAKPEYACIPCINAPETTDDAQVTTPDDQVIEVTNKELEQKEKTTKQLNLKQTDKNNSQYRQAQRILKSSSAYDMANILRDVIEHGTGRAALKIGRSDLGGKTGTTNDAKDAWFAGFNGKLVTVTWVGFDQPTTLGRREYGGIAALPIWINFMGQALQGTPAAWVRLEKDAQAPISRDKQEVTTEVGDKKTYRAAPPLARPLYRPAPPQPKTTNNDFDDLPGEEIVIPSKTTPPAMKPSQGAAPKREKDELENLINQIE
Description: Bocillin-FL fluorescence polarization competition binding, A. baumannii PBP1a. As to conditions: fluorescence polarization competition binding assay using Bocillin-FL; read-out: A. baumannii PBP1a Potency. The gist of the method: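 Purified PBP was preincubated with inhibitor (E. coli PBP3 1.5 μM, 30 min; P. aeruginosa PBP3 0.75 μM, A. baumannii PBP3 0.2 μM and PBP1a 1 μM, 15 min), then Bocillin-FL (0.1 μM; 0.05 μM for PBP1a) added and FP read up to 60 min. EC50 = 50% loss of bound probe.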
A general note: Fluorescence polarisation rises when a labelled molecule tumbles more slowly, as on binding a larger partner.

Assay [8] has as its system P. aeruginosa CDC-0110. Briefly: microbe, parasite or virus in culture. Format: cell-based. As to conditions: Pseudomonas aeruginosa, CDC0110, read-out: Minimum inhibitory concentration, P. aeruginosa CDC-0110.

In brackets after ≈: the same amount, converted by molar mass. A value given as a limit tells only on which side of the number the result lay.

For the compound `O=C(O)c1c(F)ccc2c1OB(O)[C@@H](NC(=O)[C@H](NC(=O)N1CCN(Cc3ccc(O)c(O)c3Cl)C(=O)C1=O)c1ccc(P(=O)(O)O)cc1)C2` (single isomer, unassigned) [Example 160], the MIC is 2 to 4 µg/mL (≈ 2.72 to 5.44 µM) in assay [1]; 2 to 4 µg/mL (≈ 2.72 to 5.44 µM) in assay [2]; less than 1 µg/mL in assay [3]; less than 1 µg/mL in assay [4]; less than 1 µg/mL in assay [5]; 8 to 16 µg/mL (≈ 10.9 to 21.8 µM) in assay [6].
As for `O=C(O)c1c(F)ccc2c1OB(O)[C@@H](NC(=O)[C@H](NC(=O)N1CCN(C3CCN(C(=O)Nc4cc(O)ccc4Cl)CC3)C1=O)c1cc(F)c(O)c(O)c1Cl)C2` (single isomer, unassigned) [Example 448], the IC50 in assay [7] is greater than 250 µM.
For the compound `O=C(O)c1c(F)ccc2c1OB(O)[C@@H](NC(=O)[C@H](NC(=O)N1CCN(C3CCN(C(=O)Nc4ccc(F)c(O)c4)CC3)C1=O)c1cc(F)c(O)c(O)c1Cl)C2` (single isomer, unassigned) [Example 449], the IC50 in assay [7] was greater than 250 µM.
In the case of `O=C(O)c1c(F)ccc2c1OB(O)[C@@H](NC(=O)[C@H](NC(=O)N1CCN(C3CCN(C(=O)Nc4cc(O)cc(F)c4)CC3)C1=O)c1cc(F)c(O)c(O)c1Cl)C2` (single isomer, unassigned) [Example 450], the IC50 in assay [7] was greater than 250 µM.
Still for that read-out and setting: the result for `O=C(O)c1c(F)ccc2c1OB(O)[C@@H](NC(=O)[C@H](NC(=O)N1CCN(C3CCN(C(=O)Nc4c(F)ccc(O)c4F)CC3)C1=O)c1cc(F)c(O)c(O)c1Cl)C2` (single isomer, unassigned) [Example 454] reads greater than 250 µM; that for `O=C(O)c1cccc2c1OB(O)[C@@H](NC(=O)C(NC(=O)N1CCN(Cc3cc(F)c(O)c(O)c3Cl)C(=O)C1=O)c1ccc(P(=O)(O)O)cc1)C2` (stereo partly drawn) [Example 164, (3R)-3-(2-(4-(2-chloro-5-fluoro-3,4-dihydroxybenzyl)-2,3-dioxopiperazine-1-carboxamido)-2-(4-phosphonophenyl)acetamido)-2-hydroxy-3,4-dihydro-2H-benzo[e][1,2]oxaborinine-8-carboxylic acid], greater than 250 µM.
For `O=C(O)c1c(F)ccc2c1OB(O)[C@@H](NC(=O)C(NC(=O)N1CCN(C3CCN(C(=O)Nc4ccc(F)c(O)c4F)CC3)C1=O)c1cc(F)c(O)c(O)c1Cl)C2` (stereo partly drawn) [Example 452, (3R)-3-(2-(2-chloro-5-fluoro-3,4-dihydroxyphenyl)-2-(3-(1-((2,4-difluoro-3-hydroxyphenyl)carbamoyl)piperidin-4-yl)-2-oxoimidazolidine-1-carboxamido)acetamido)-7-fluoro-2-hydroxy-3,4-dihydro-2H-benzo[e][1,2]oxaborinine-8-carboxylic acid], the IC50 in assay [7] was greater than 250 µM.
For `O=C(O)c1c(F)ccc2c1OB(O)[C@@H](NC(=O)C(NC(=O)N1CCN(C3CCN(C(=O)Nc4cc(O)ccc4F)CC3)C(=O)C1=O)c1cc(F)c(O)c(O)c1Cl)C2` (stereo partly drawn) [Example 479, (3R)-3-(2-(2-chloro-5-fluoro-3,4-dihydroxyphenyl)-2-(4-(1-((2-fluoro-5-hydroxyphenyl)carbamoyl)piperidin-4-yl)-2,3-dioxopiperazine-1-carboxamido)acetamido)-7-fluoro-2-hydroxy-3,4-dihydro-2H-benzo[e][1,2]oxaborinine-8-carboxylic acid], in assay [7], the IC50 is greater than 250 µM.
Still for that read-out and setting: the result for `O=C(O)c1c(F)ccc2c1OB(O)[C@@H](NC(=O)C(NC(=O)N1CCN(C3CCN(C(=O)Nc4ccc(F)c(O)c4)CC3)C(=O)C1=O)c1cc(F)c(O)c(O)c1Cl)C2` (stereo partly drawn) [Example 480, (3R)-3-(2-(2-chloro-5-fluoro-3,4-dihydroxyphenyl)-2-(4-(1-((4-fluoro-3-hydroxyphenyl)carbamoyl)piperidin-4-yl)-2,3-dioxopiperazine-1-carboxamido)acetamido)-7-fluoro-2-hydroxy-3,4-dihydro-2H-benzo[e][1,2]oxaborinine-8-carboxylic acid] reads greater than 250 µM; that for `O=C(O)c1c(F)ccc2c1OB(O)[C@@H](NC(=O)C(NC(=O)N1CCN(C3CCN(C(=O)Nc4cc(O)cc(F)c4)CC3)C(=O)C1=O)c1cc(F)c(O)c(O)c1Cl)C2` (stereo partly drawn) [Example 481, (3R)-3-(2-(2-chloro-5-fluoro-3,4-dihydroxyphenyl)-2-(4-(1-((3-fluoro-5-hydroxyphenyl)carbamoyl)piperidin-4-yl)-2,3-dioxopiperazine-1-carboxamido)acetamido)-7-fluoro-2-hydroxy-3,4-dihydro-2H-benzo[e][1,2]oxaborinine-8-carboxylic acid], greater than 250 µM; that for `O=C(O)c1c(F)ccc2c1OB(O)[C@@H](NC(=O)[C@H](NC(=O)N1CCN(C3CCN(C(=O)Nc4cccc(O)c4Cl)CC3)C(=O)C1=O)c1cc(F)c(O)c(O)c1Cl)C2` [Example 482, (R)-3-((R)-2-(4-(1-((2-chloro-3-hydroxyphenyl)carbamoyl)piperidin-4-yl)-2,3-dioxopiperazine-1-carboxamido)-2-(2-chloro-5-fluoro-3,4-dihydroxyphenyl)acetamido)-7-fluoro-2-hydroxy-3,4-dihydro-2H-benzo[e][1,2]oxaborinine-8-carboxylic acid], greater than 250 µM.
Consider `O=C(O)c1c(F)ccc2c1OB(O)[C@@H](NC(=O)C(NC(=O)N1CCN(C3CCN(C(=O)Nc4cc(O)ccc4Cl)CC3)C(=O)C1=O)c1cc(F)c(O)c(O)c1Cl)C2` (stereo partly drawn) [Example 483, (3R)-3-(2-(2-chloro-5-fluoro-3,4-dihydroxyphenyl)-2-(4-(1-((2-chloro-5-hydroxyphenyl)carbamoyl)piperidin-4-yl)-2,3-dioxopiperazine-1-carboxamido)acetamido)-7-fluoro-2-hydroxy-3,4-dihydro-2H-benzo[e][1,2]oxaborinine-8-carboxylic acid], for which the IC50 in assay [7] is greater than 250 µM.
Regarding `O=C(O)c1c(F)ccc2c1OB(O)[C@@H](NC(=O)C(NC(=O)N1CCN(C3CCN(C(=O)Nc4cc(O)cc(Cl)c4)CC3)C(=O)C1=O)c1cc(F)c(O)c(O)c1Cl)C2` (stereo partly drawn) [Example 484, (3R)-3-(2-(2-chloro-5-fluoro-3,4-dihydroxyphenyl)-2-(4-(1-((3-chloro-5-hydroxyphenyl)carbamoyl)piperidin-4-yl)-2,3-dioxopiperazine-1-carboxamido)acetamido)-7-fluoro-2-hydroxy-3,4-dihydro-2H-benzo[e][1,2]oxaborinine-8-carboxylic acid], in assay [7], the IC50 was greater than 250 µM.
In the case of `O=C(O)c1c(F)ccc2c1OB(O)[C@@H](NC(=O)C(NC(=O)N1CCN(C3CCN(C(=O)Nc4c(F)ccc(O)c4F)CC3)C(=O)C1=O)c1cc(F)c(O)c(O)c1Cl)C2` (stereo partly drawn) [Example 487, (3R)-3-(2-(2-chloro-5-fluoro-3,4-dihydroxyphenyl)-2-(4-(1-((2,6-difluoro-3-hydroxyphenyl)carbamoyl)piperidin-4-yl)-2,3-dioxopiperazine-1-carboxamido)acetamido)-7-fluoro-2-hydroxy-3,4-dihydro-2H-benzo[e][1,2]oxaborinine-8-carboxylic acid], the MIC in assay [8] was less than 1 µg/mL.
On the same count and under the same terms, the value for `O=C(O)c1c(F)ccc2c1OB(O)[C@@H](NC(=O)C(NC(=O)N1CCN(C3CCN(C(=O)Nc4cc(O)c(F)c(F)c4)CC3)C(=O)C1=O)c1cc(F)c(O)c(O)c1Cl)C2` (stereo partly drawn) [Example 488, (3R)-3-(2-(2-chloro-5-fluoro-3,4-dihydroxyphenyl)-2-(4-(1-((3,4-difluoro-5-hydroxyphenyl)carbamoyl)piperidin-4-yl)-2,3-dioxopiperazine-1-carboxamido)acetamido)-7-fluoro-2-hydroxy-3,4-dihydro-2H-benzo[e][1,2]oxaborinine-8-carboxylic acid] was less than 1 µg/mL.

The values are drawn from patent publication US20240270762A1, “PENICILLIN-BINDING PROTEIN INHIBITORS” (priority 2021, published 2024).
